Measurements taken from US20230277831A1, “Focused Ultrasound Device” (Washington University, priority 2022, published 2023).

Test: Evans blue delivery after FUS-BBBO, fluorescence imaging of brain sections
Format: in vivo, mice (C57BL/6)
Settings: mouse brain
Protocol: Following the FUS-BBBO treatment as described in Example 3, the brains of the mice were harvested and harvested sections were fluorescence imaged using an LI-COR imaging system (Pearl Trilogy; 700 Channel laser source (Ex 785 nm/Em 820 nm); resolution 85 μm). Enhanced fluorescence signals associated with the delivery of Evans blue through the FUS-disrupted BBB were determined by comparing sections from FUS-BBBO and corresponding untreated brain halves.
Evans Blue has been commonly used as a model drug for evaluating the FUS-BBBO drug delivery outcome. The harvested mouse brains were cut into 1-mm thick coronal sections using the mouse brain matrix (World Precision Instrument, Sarasota, Fla., USA). Fluorescence images of brain sections were taken using a LI-COR imaging system (Pearl Trilogy; 700 Channel laser source (Ex 785 nm/Em 820 nm); resolution 85 μm) and analyzed using Matlab (Mathworks, Natick, Mass., USA). […] Pixels with intensities above the background autofluorescence intensity were identified for each brain section. Evans blue delivery volume was calculated by the total number of pixels with enhanced fluorescence signal in all the brain sections. The mean fluorescence intensity of pixels with enhanced fluorescence signal in all the brain sections was calculated to represent the signal intensity of the delivered Evans blue.

With `Cc1cc(-c2ccc(/N=N/c3ccc4c(S(=O)(=O)O)cc(S(=O)(=O)O)c(N)c4c3O)c(C)c2)ccc1/N=N/c1ccc2c(S(=O)(=O)O)cc(S(=O)(=O)O)c(N)c2c1O` [Evans Blue] the “Evans Blue extravasation” value (FUS at 0.4 MPa and 0.57 MPa for all frequencies (1.5, 3.0, 6.0 MHz) and 0.2 MPa for 1.5 MHz) was “observed”, the “Evans Blue extravasation” value (FUS at 3.0 MHz and 6.0 MHz at 0.2 MPa) was “not detectable” and the “Evans Blue delivery volume” value (i.v., FUS-BBBO at 1.5 MHz, 0.57 MPa (largest BBB opening volume), mean±SD) was 69±3.8 mm^3. The “Evans Blue signal intensity” value (i.v., FUS-BBBO at 1.5 MHz, 0.57 MPa, mean fluorescence intensity, mean±SD) was 47±8.2 and the “Evans Blue delivery volume” value (i.v., FUS-BBBO at 6 MHz, 0.4 MPa (smallest BBB opening volume), mean±SD) was 8.9±1.3 mm^3.
